Results: article PMC5640845, “Screening of FDA-Approved Drugs for Inhibitors of Japanese Encephalitis Virus Infection” (Journal of Virology, 2017)
Counter-ions that a name gives are not always drawn.

Key:
JEV = experiment: IFA of JEV infection with calcium inhibitors on Vero and Huh-7 cells; assay type: cell-based, Japanese encephalitis virus
JEV RVP [1] = experiment: in vitro; conditions: African green monkey, SI (selective index, CC50/IC50), Vero cells
[2] = Cytotoxicity (CC50) of compounds from the reconfirmation screen; assay type: cell-based; conditions: African green monkey, Vero cells; 50% cytotoxic concentration
JEV RVP [3] = experiment: microbe, parasite or virus in culture; conditions: Japanese encephalitis virus, Vero; for IC50: 24 h; for inhibition at 10 µM: read-out: level of inhibition in the primary screen
ZIKV = ZIKV infection of Vero cells (viral titer, RNA, IFA); assay type: cell-based, Zika virus; conditions: 48 h; for ZIKV plaque formation: 10 μM, Vero cells
[4] = tested on: JEV NS4B Q130 mutant viruses; assay type: cell-based, Japanese encephalitis virus
YFV = assay type: cell-based, yellow fever virus
JEV strain AT31 [5] = conditions: mouse, in vivo
JEV strain AT31 [6] = experiment: qRT-PCR quantification of JEV RNA in cell lysates; conditions: high-, middle- and low-dose groups, 24 h
DENV-2 replicon = DENV-2 replicon luciferase assay in BHK-21 cells; assay type: cell-based, dengue virus type 2; conditions: 72 h
Experimental: FIG 4 Broad-spectrum antiviral activity of the hit drugs against flaviviruses. […] The hit drugs were added to the cells at 1 h preinfection and were present throughout the experiment. At 48 h postinfection, the cell culture supernatants were subjected to a viral titer assay (top left), while cell lysates were assessed for viral RNA quantification (top right), and duplicate cells were analyzed by IFA for E protein (green) expression (bottom). Nuclei (blue) were stained with DAPI (4′,6-diamidino-2-phenylindole). (B and C) BHK-21 cells transfected with the WNV or DENV-2 replicon were treated with the hit drugs at the indicated concentrations, and luciferase activities were determined 48 h or 72 h later.
To ensure the effectiveness of the hit drugs in flavivirus replication, BHK-21 cells transfected with the JEV, WNV, or DENV-2 replicon were incubated with each drug at the concentrations indicated above, and the luciferase activities were determined 24 h, 48 h, or 72 h later, respectively.

JEV RVP [7] = conditions: Vero cells

| SMILES | selectivity ratio (JEV RVP [1]) | CC50 [2] | IC50 (JEV RVP [3]) | also measured |
| --- | --- | --- | --- | --- |
| CC(=O)OCOC(=O)CN(CC(=O)OCOC(C)=O)c1ccccc1OCCOc1ccccc1N(CC(=O)OCOC(C)=O)CC(=O)OCOC(C)=O [BAPTA-AM, 1,2-bis-(o-aminophenoxy)-ethane-N,N,N′,N′-tetraacetic acid, tetraacetoxymethyl ester] |  |  |  | inhibition of JEV infection (IFA, prM-positive cells vs DMSO control) (JEV): suppress JEV infection |
| COC(=O)C1=C(C)NC(C)=C(C(=O)OC2CCCN(Cc3ccccc3)C2)C1c1cccc([N+](=O)[O-])c1 (stereo not drawn) [Benidipine hydrochloride] | 15 | 55.9 µM | 3.7 µM |  |
| Clc1ccc(CCC(Cn2ccnc2)Sc2c(Cl)cccc2Cl)cc1 (stereo not drawn) [Butoconazole Nitrate] | 4 | 15.7 µM | 4 µM |  |
| COCCOC(=O)C1=C(C)NC(C)=C(C(=O)OC/C=C/c2ccccc2)C1c1cccc([N+](=O)[O-])c1 (stereo not drawn) [Cilnidipine] | > 28.6 | > 100 µM | 3.5 µM | ZIKV plaque formation (ZIKV): no plaque formation |
| CCOC(=O)C1=C(C)NC(C)=C(C(=O)OCC)C1c1ccccc1/C=C/C(=O)OC(C)(C)C [Lacidipine] | 4 | 14.1 µM | 3.5 µM |  |
| COC(=O)C1=C(C)NC(C)=C(C(=O)OCCN2CCN(C(c3ccccc3)c3ccccc3)CC2)C1c1cccc([N+](=O)[O-])c1 (stereo not drawn) [Manidipine] | > 62.5 | > 100 µM | 1.6 µM | decrease of viral titer, Q130A mutant JEV [4]: higher than 2 log-unit; decrease of viral titer, Q130K mutant JEV [4]: less than 2 log units; decrease of viral titer, Q130R mutant JEV [4]: less than 2 log units; reduction of viral yields, WT JEV [4]: approximately 4 log units; resistance of Q130E mutant JEV to the drug [4]: no resistance; sensitivity of YFV to the drug (YFV): resistance; effect on peripheral JEV infection (serum and spleen viral loads) (JEV strain AT31 [5]): little effect; histopathological changes in brain (meningitis, perivascular cuffing, vacuolar degeneration, glial nodules) (JEV strain AT31 [5]): remarkably alleviated; abnormal behavior of treated mice (JEV strain AT31 [5]; ip, 25 mg/kg): little abnormal behavior; animals survived (JEV strain AT31 [5]; ip, 25 mg/kg): 12 out of 15; mortality rate (JEV strain AT31 [5]; ip, 25 mg/kg): 20%; attenuation of JEV RNA levels (inhibitory effect vs control) (JEV strain AT31 [6]): at least 80%; ZIKV plaque formation (ZIKV): no plaque formation; inhibition at 5 µM (ZIKV; Zika virus, Vero, read-out: inhibition of ZIKV viral replication, translation, and viral yields): 95% |
| Clc1ccc(C(c2ccccc2Cl)C(Cl)Cl)cc1 (stereo not drawn) [Mitotane] | 3.9 | 25.9 µM | 6.6 µM |  |
| Cc1c(O)cccc1C(=O)N[C@@H](CSc1ccccc1)[C@H](O)CN1C[C@H]2CCCC[C@H]2C[C@H]1C(=O)NC(C)(C)C [Nelfinavir Mesylate] | 16.8 | 27.1 µM | 1.6 µM | level of DENV-2 replication (replicon luciferase) (DENV-2 replicon): no effect at the concentrations tested |
| CC[C@@H]1/C=C(\C)C[C@H](C)C[C@H](OC)[C@H]2O[C@@](O)(C(=O)C(=O)N3CCCC[C@H]3C(=O)O[C@H](/C(C)=C/[C@@H]3CC[C@H](Cl)[C@H](OC)C3)[C@H](C)[C@@H](O)CC1=O)[C@H](C)C[C@@H]2OC [Pimecrolimus] | > 32.3 | > 100 µM | 3.1 µM | SI (selective index, CC50/IC50) (JEV RVP [7]): > 32 |
| COc1ccc(CCN(C)CCCC(C#N)(c2ccc(OC)c(OC)c2)C(C)C)cc1OC (stereo not drawn) [Verapamil] |  |  |  | inhibition of JEV infection (IFA, prM-positive cells vs DMSO control) (JEV): dose-dependent inhibition |
| CCOC(=O)C1=C(C)NC(C)=C(C(=O)OC)C1c1cccc(Cl)c1Cl (stereo not drawn) [felodipine] |  |  |  | inhibition at 10 µM (JEV RVP [3]): 72% |
| Fc1ccc(C(c2ccc(F)cc2)N2CCN(C/C=C/c3ccccc3)CC2)cc1 [flunarizine dihydrochloride] |  |  |  | inhibition at 10 µM (JEV RVP [3]): > 90% |
| COc1ccc(CN2CCN(C(c3ccc(F)cc3)c3ccc(F)cc3)CC2)c(OC)c1OC.Cl.Cl [lomerizine hydrochloride] |  |  |  | level of inhibition in the primary screen (JEV RVP [7]; 10 μM compound): > 90% |
| COC(=O)C1=C(C)NC(C)=C(C(=O)OCCN(C)Cc2ccccc2)C1c1cccc([N+](=O)[O-])c1 (stereo not drawn) [nicardipine hydrochloride] |  |  |  | inhibition at 10 µM (JEV RVP [3]): 66% |
| COC(=O)C1=C(C)NC(C)=C(C(=O)OCC(C)C)C1c1ccccc1[N+](=O)[O-] (stereo not drawn) [nisoldipine] |  |  |  | inhibition at 10 µM (JEV RVP [3]): 75% |
